{"source": "patent US4411898A", "about": "“7-[2-Oxyimino-2-(2-aminothiazol-4-yl)acetamido]-3-(1-carboxya lkyl-1H-tetrazol-5-yl)thiomethyl-3-cephem-4-carboxylic acid compounds” (Fujisawa Pharmaceutical Co., Ltd., priority 1977, dated 1983)", "experiment_in_all_cases": "In vitro antibacterial activity, two-fold agar-plate dilution method", "assay_type_in_all_cases": "cell-based", "conditions_in_all_cases": "HI-agar, 37° C., 20 hours, read-out: minimal inhibitory concentration (MIC)", "key": {"[1]": {"system": "Proteus vulgaris 2", "protocol": "(§1) In vitro antibacterial activity was determined by the two-fold agar-plate dilution method as described below.\n(§2) One loopful of an overnight culture of each test strain in Trypticase-soy broth (10^8 viable cells per ml.) was streaked on heart infusion agar (HI-agar) containing graded concentrations of test compounds, and minimal inhibitory concentration (MIC) was expressed in terms of μg/ml. after incubation at 37° C. for 20 hours."}, "[2]": {"system": "Staphylococcus aureus 209P JC-1", "protocol": "as §1, §2"}, "[3]": {"system": "Escherichia coli 324", "protocol": "as §1, §2"}, "[4]": {"system": "Klebsiella aerogenes 417", "protocol": "as §1, §2"}, "[5]": {"system": "Proteus mirabilis 525", "protocol": "as §1, §2"}}, "note": "Where a name gives a salt, the structure may show the parent alone."}
{"smiles": "CCCON=C(C(=O)NC1C(=O)N2C(C(=O)O)=C(CSc3nnnn3CC(=O)O)CSC12)c1csc(N)n1", "note": "(stereo not drawn) [Test Compound (1), 7-[2-n-Propoxyimino-2-(2-amino-1,3-thiazol-4-yl)acetamido]-3-(1-carboxymethyl-1H-tetrazol-5-yl)thiomethyl-3-cephem-4-carboxylic acid (syn isomer)]", "values": [{"measurement": "MIC", "setting": "[1]", "result": 0.39, "unit": "µg/mL"}, {"measurement": "MIC", "setting": "[2]", "result": 12.5, "unit": "µg/mL"}]}
{"smiles": "C=CCON=C(C(=O)NC1C(=O)N2C(C(=O)O)=C(CSc3nnnn3CC(=O)O)CSC12)c1csc(N)n1", "note": "(stereo not drawn) [Test Compound (2), 7-[2-Allyloxyimino-2-(2-amino-1,3-thiazol-4-yl)acetamido]-3-(1-carboxymethyl-1H-tetrazol-5-yl)thiomethyl-3-cephem-4-carboxylic acid hydrochloride (syn isomer)]", "values": [{"measurement": "MIC", "setting": "[1]", "result": 0.78, "unit": "µg/mL"}, {"measurement": "MIC", "setting": "[2]", "result": 12.5, "unit": "µg/mL"}]}
{"smiles": "C#CCON=C(C(=O)NC1C(=O)N2C(C(=O)O)=C(CSc3nnnn3CC(=O)O)CSC12)c1csc(N)n1", "note": "(stereo not drawn) [Test Compound (3), 7-[2-(2-Propynyloxyimino)-2-(2-amino-1,3-thiazol-4-yl)acetamido]-3-(1-carboxymethyl-1H-tetrazol-5-yl)thiomethyl-3-cephem-4-carboxylic acid (syn isomer)]", "values": [{"measurement": "MIC", "setting": "[1]", "result": 0.025, "unit": "µg/mL"}, {"measurement": "MIC", "setting": "[2]", "result": 12.5, "unit": "µg/mL"}]}
{"smiles": "CON=C(C(=O)NC1C(=O)N2C(C(=O)O)=C(CSc3nnnn3CC(=O)O)CSC12)c1csnn1", "note": "(stereo not drawn) [Test Compound (4), 7-[2-Methoxyimino-2-(1,2,3-thiadiazol-4-yl)acetamido]-3-(1-carboxymethyl-1H-tetrazol-5-yl)thiomethyl-3-cephem-4-carboxylic acid (syn isomer)]", "values": [{"measurement": "MIC", "setting": "[3]", "result": 0.2, "unit": "µg/mL"}, {"measurement": "MIC", "setting": "[4]", "result": 0.39, "unit": "µg/mL"}, {"measurement": "MIC", "setting": "[5]", "result": 0.2, "unit": "µg/mL"}]}
